Laboratory results reported in ChEMBL document CHEMBL1129369, “Forskolin carbamates: binding and activation studies with type I adenylyl cyclase” (J Med Chem, 1996).

What was measured:
Adenylate cyclase type 1 [1] = target: T1, Adenylate cyclase type 1 (Homo sapiens, UniProt Q08828); assay: (§1) Inhibition of [125 I]6-IHPP-forskolin binding to adenylate cyclase 1
Target sequence in this assay (Q08828 whole entry): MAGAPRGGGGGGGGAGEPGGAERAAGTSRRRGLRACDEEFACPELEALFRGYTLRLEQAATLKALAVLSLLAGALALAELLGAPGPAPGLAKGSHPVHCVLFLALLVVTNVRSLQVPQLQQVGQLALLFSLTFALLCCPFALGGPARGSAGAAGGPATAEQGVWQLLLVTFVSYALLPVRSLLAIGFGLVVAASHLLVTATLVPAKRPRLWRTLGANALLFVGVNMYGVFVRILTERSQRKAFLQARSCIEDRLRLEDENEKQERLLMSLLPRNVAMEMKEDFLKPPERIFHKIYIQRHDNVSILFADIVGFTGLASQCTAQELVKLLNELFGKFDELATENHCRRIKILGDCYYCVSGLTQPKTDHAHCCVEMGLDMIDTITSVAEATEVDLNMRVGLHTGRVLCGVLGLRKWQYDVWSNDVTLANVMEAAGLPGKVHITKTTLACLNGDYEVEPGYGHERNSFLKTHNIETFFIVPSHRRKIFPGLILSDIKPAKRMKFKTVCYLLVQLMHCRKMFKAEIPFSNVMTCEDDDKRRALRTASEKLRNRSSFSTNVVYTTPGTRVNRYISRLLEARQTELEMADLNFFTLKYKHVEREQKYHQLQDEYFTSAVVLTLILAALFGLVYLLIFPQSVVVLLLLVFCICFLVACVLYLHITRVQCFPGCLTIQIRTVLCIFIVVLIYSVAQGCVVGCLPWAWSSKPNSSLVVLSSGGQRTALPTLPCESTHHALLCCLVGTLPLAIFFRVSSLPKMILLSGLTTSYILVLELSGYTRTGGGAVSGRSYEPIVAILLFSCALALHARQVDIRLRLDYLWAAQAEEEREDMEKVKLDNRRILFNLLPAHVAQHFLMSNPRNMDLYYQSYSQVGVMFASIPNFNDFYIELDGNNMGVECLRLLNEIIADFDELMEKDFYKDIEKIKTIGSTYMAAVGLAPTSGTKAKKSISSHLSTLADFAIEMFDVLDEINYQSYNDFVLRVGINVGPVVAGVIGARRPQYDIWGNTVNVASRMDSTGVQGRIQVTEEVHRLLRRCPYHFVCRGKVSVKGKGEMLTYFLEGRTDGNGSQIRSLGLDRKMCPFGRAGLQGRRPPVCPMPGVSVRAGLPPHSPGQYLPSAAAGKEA

Adenylate cyclase type 1 [2] = target: T1, Adenylate cyclase type 1; assay: Conversion of [32P] ATP to [32P]-cyclic AMP mediated by adenylate cyclase 1; format: functional
Target sequence in this assay (Q08828 whole entry): as above

Adenylate cyclase type 1 [3] = target: T1, Adenylate cyclase type 1; assay: Ability to activate the conversion of [32P] ATP to [32P]-cyclic AMP mediated by adenylate cyclase 1; format: functional
Target sequence in this assay (Q08828 whole entry): as above

Adenylate cyclase type 1 [4] = target: T1, Adenylate cyclase type 1; assay: as §1; remark: listed apart in the source
Target sequence in this assay (Q08828 whole entry): as above

Adenylate cyclase type 1 [5] = target: T1, Adenylate cyclase type 1; assay: Maximum stimulation activity measured with 100 uM forskolin mediated by adenylate cyclase 1; format: functional
Target sequence in this assay (Q08828 whole entry, looked up): as the sequence (Q08828 whole entry) above

Compound | IC50 (Adenylate cyclase type 1 [1]) [nM] | EC50 (Adenylate cyclase type 1 [2]; read-out: EC50) [nM] | EC50 (Adenylate cyclase type 1 [3]) [nM] | IC50 (Adenylate cyclase type 1 [4]) [nM] | Activity (Adenylate cyclase type 1 [5]) [%] | EC50 (Adenylate cyclase type 1 [2])
C=C[C@@]1(C)CC(=O)[C@]2(O)[C@@]3(C)[C@@H](O)CCC(C)(C)[C@@H]3[C@H](O)[C@H](OC(=O)NCCC)[C@@]2(C)O1 | < 150 | 1300 | < 2000 | 89 | 101 | –
C=C[C@@]1(C)CC(=O)[C@]2(O)[C@@]3(C)[C@@H](O)CCC(C)(C)[C@@H]3[C@H](OC(=O)NCCc3ccc(N)cc3)[C@H](O)[C@@]2(C)O1 | > 150 | 5100 | > 2000 | 162 | 83 | –
C=C[C@@]1(C)CC(=O)[C@]2(O)[C@@]3(C)[C@@H](O)CCC(C)(C)[C@@H]3[C@H](O)[C@H](OC(=O)NCCc3ccccn3)[C@@]2(C)O1 | < 150 | 1100 | < 2000 | 143 | 91 | –
C=C[C@@]1(C)CC(=O)[C@]2(O)[C@@]3(C)[C@@H](O)CCC(C)(C)[C@@H]3[C@H](OC(=O)NCC3CCCCC3)[C@H](O)[C@@]2(C)O1 | > 150 | 1000 | < 2000 | 433 | 51 | –
C=C[C@@]1(C)CC(=O)[C@]2(O)[C@@]3(C)[C@@H](O)CCC(C)(C)[C@@H]3[C@H](OC(=O)NCCc3ccccc3)[C@H](OC(C)=O)[C@@]2(C)O1 | < 150 | 1500 | < 2000 | 36 | 65 | –
C=C[C@@]1(C)CC(=O)[C@]2(O)[C@@]3(C)[C@@H](O)CCC(C)(C)[C@@H]3[C@H](O)[C@H](OC(=O)NCCOC)[C@@]2(C)O1 | > 150 | 1600 | > 2000 | 174 | 97 | –
C=C[C@@]1(C)CC(=O)[C@]2(O)[C@@]3(C)[C@@H](O)CCC(C)(C)[C@@H]3[C@H](O)[C@H](OC(=O)NCCC(=O)OCC)[C@@]2(C)O1 | > 150 | 3600 | > 2000 | 185 | 127 | –
C=C[C@@]1(C)CC(=O)[C@]2(O)[C@@]3(C)[C@@H](O)CCC(C)(C)[C@@H]3[C@H](OC(=O)NCCc3ccccn3)[C@H](O)[C@@]2(C)O1 | < 150 | 1800 | < 2000 | 117 | 59 | –
C=CCNC(=O)O[C@H]1[C@H]2C(C)(C)CC[C@H](O)[C@]2(C)[C@@]2(O)C(=O)C[C@](C)(C=C)O[C@]2(C)[C@H]1OC(C)=O | < 150 | 4400 | > 2000 | 76 | 80 | –
C=C[C@@]1(C)CC(=O)[C@]2(O)[C@@]3(C)[C@@H](O)CCC(C)(C)[C@@H]3[C@H](OC(=O)NCCc3ccccc3)[C@H](O)[C@@]2(C)O1 | < 150 | 1100 | < 2000 | 65 | 72 | –
C=C[C@@]1(C)CC(=O)[C@]2(O)[C@@]3(C)[C@@H](O)CCC(C)(C)[C@@H]3[C@H](O)[C@H](OC(=O)NCC(C)C)[C@@]2(C)O1 | < 150 | 2700 | > 2000 | 112 | 72 | –

Further compounds by falling IC50 (Adenylate cyclase type 1 [4]), results first:

IC50 (Adenylate cyclase type 1 [1]) [nM] | EC50 (Adenylate cyclase type 1 [2]; read-out: EC50) [nM] | EC50 (Adenylate cyclase type 1 [3]) [nM] | IC50 (Adenylate cyclase type 1 [4]) [nM] | Activity (Adenylate cyclase type 1 [5]) [%] | EC50 (Adenylate cyclase type 1 [2]) | Compound
> 150 | 6400 | > 2000 | 1600 | 44 | – | C=C[C@@]1(C)CC(=O)[C@]2(O)[C@@]3(C)[C@@H](O)CCC(C)(C)[C@@H]3[C@H](O)[C@H](OC(=O)NCC3CCCCC3)[C@@]2(C)O1
> 150 | 8100 | > 2000 | 271 | 84 | – | C=C[C@@]1(C)CC(=O)[C@]2(O)[C@@]3(C)[C@@H](O)CCC(C)(C)[C@@H]3[C@H](OC(=O)NCCC(C)(C)C)[C@H](OC(C)=O)[C@@]2(C)O1
> 150 | 2100 | > 2000 | 251 | 75 | – | C=C[C@@]1(C)CC(=O)[C@]2(O)[C@@]3(C)[C@@H](O)CCC(C)(C)[C@@H]3[C@H](O)[C@H](OC(=O)NCCc3ccccc3)[C@@]2(C)O1
> 150 | 3600 | > 2000 | 230 | 85 | – | C=C[C@@]1(C)CC(=O)[C@]2(O)[C@@]3(C)[C@@H](O)CCC(C)(C)[C@@H]3[C@H](OC(=O)NCCO)[C@H](O)[C@@]2(C)O1
– | – | – | 192 | – | Indeterminate | C=C[C@@]1(C)CC(=O)[C@]2(O)[C@@]3(C)[C@@H](O)CCC(C)(C)[C@@H]3[C@H](OC(=O)NCCN)[C@H](O)[C@@]2(C)O1
> 150 | 2400 | > 2000 | 157 | 102 | – | C=CCNC(=O)O[C@H]1[C@@H](O)[C@H]2C(C)(C)CC[C@H](O)[C@]2(C)[C@@]2(O)C(=O)C[C@](C)(C=C)O[C@]12C
< 150 | 500 | < 2000 | 142 | 57 | – | C=C[C@@]1(C)CC(=O)[C@]2(O)[C@@]3(C)[C@@H](O)CCC(C)(C)[C@@H]3[C@H](OC(=O)NCCO)[C@H](OC(C)=O)[C@@]2(C)O1
< 150 | 700 | < 2000 | 128 | 85 | – | C=C[C@@]1(C)CC(=O)[C@]2(O)[C@@]3(C)[C@@H](O)CCC(C)(C)[C@@H]3[C@H](O)[C@H](OC(=O)NCCN)[C@@]2(C)O1
< 150 | 1700 | < 2000 | 123 | 80 | – | C=C[C@@]1(C)CC(=O)[C@]2(O)[C@@]3(C)[C@@H](O)CCC(C)(C)[C@@H]3[C@H](OC(=O)NCCN3CCCCC3)[C@H](O)[C@@]2(C)O1
< 150 | 1400 | < 2000 | 95 | 45 | – | C=C[C@@]1(C)CC(=O)[C@]2(O)[C@@]3(C)[C@@H](O)CCC(C)(C)[C@@H]3[C@H](O)[C@H](OC(=O)NCCc3ccc(O)cc3)[C@@]2(C)O1
< 150 | 4300 | > 2000 | 76 | 80 | – | C=C[C@@]1(C)CC(=O)[C@]2(O)[C@@]3(C)[C@@H](O)CCC(C)(C)[C@@H]3[C@H](OC(=O)NCCC)[C@H](OC(C)=O)[C@@]2(C)O1
< 150 | 2000 | < 2000 | 73 | 100 | – | C=C[C@@]1(C)CC(=O)[C@]2(O)[C@@]3(C)[C@@H](O)CCC(C)(C)[C@@H]3[C@H](OC(=O)NCCN(C)C)[C@H](OC(C)=O)[C@@]2(C)O1
< 150 | 500 | < 2000 | 39 | 55 | – | C=C[C@@]1(C)CC(=O)[C@]2(O)[C@@]3(C)[C@@H](O)CCC(C)(C)[C@@H]3[C@H](OC(=O)NCCc3ccc(N)cc3)[C@H](OC(C)=O)[C@@]2(C)O1
< 150 | 600 | < 2000 | 31 | 125 | – | C=C[C@@]1(C)CC(=O)[C@]2(O)[C@@]3(C)[C@@H](O)CCC(C)(C)[C@@H]3[C@H](OC(=O)NCCN)[C@H](OC(C)=O)[C@@]2(C)O1
< 150 | 600 | < 2000 | 21 | 97 | – | C=C[C@@]1(C)CC(=O)[C@]2(O)[C@@]3(C)[C@@H](O)CCC(C)(C)[C@@H]3[C@H](OC(=O)NCCc3ccccn3)[C@H](OC(C)=O)[C@@]2(C)O1
